Laboratory results reported in US20090053378A1, “Sweetener Compositions Having Enhanced Sweetness and Improved Temporal and/or Flavor Profiles” (THE COCA-COLA COMPANY, priority 2007, published 2009).
Each block holds one molecule with its values, some of them ahead of it.

What was measured:
[1] = Sweetness enhancement tasting of 2-hydroxybenzoic acid derivatives in sucrose solution; assay type: in vivo; design: key: NSE: No Significant Effect; settings: 6% sucrose, roughly neutral pH; 6-10 scale (6, 8, 10% sucrose references)
Method: (§1) The hydroxybenzoic acid derivatives were tasted by themselves in water at a concentration of 3 mM prior to tasting with sucrose, glucose, or fructose to determine enhancement activities. After it was determined that the hydroxybenzoic acid derivatives themselves would contribute no sweetness, they were added to solutions with; 5% fructose, 9% glucose and 6% sucrose. These solutions were adjusted to roughly neutral pH using dilute NaOH solution. The sweetness of the fructose, glucose, and sucrose solutions were evaluated both without and with the hydroxybenzoic acid derivatives using independent sweetness intensity scales for sucrose, fructose, and glucose which were scaled according to references provided for each sweetener, Thus, for sucrose, sweetness references provided were 6, 8, and 10% sucrose and the sweetness intensities of unknown samples were scaled on this 6-10 scale. For fructose, 5, 7.5, and 9% fructose references were provided and the sweetness intensities of unknown samples were scaled on this 5-9 scale. For glucose, 9, 10.5, and 12% glucose references were provided and the sweetness intensities of unknown samples were scaled on this 9-12 scale.

[2] = Sweetness enhancement tasting of 2-hydroxybenzoic acid derivatives in fructose solution; assay type: in vivo; design: key: NSE: No Significant Effect; settings: 5% fructose, roughly neutral pH; 5-9 scale (5, 7.5, 9% fructose references)
Method: as §1

[3] = Sweetness enhancement tasting of 2-hydroxybenzoic acid derivatives in glucose solution; assay type: in vivo; design: key: NSE: No Significant Effect; settings: 9% glucose, roughly neutral pH; 9-12 scale (9, 10.5, 12% glucose references)
Method: as §1

[4] = Rate of dissolution of rebaudioside A forms in water; assay type: physicochemical

Molecule: COC(=O)COc1ccc(C(=O)O)c(O)c1 [compound 37]
- Sucrose sweetness rating, without => with the hydroxybenzoic acid derivative [1]: NSE
- Fructose sweetness rating, without => with the hydroxybenzoic acid derivative [2]: NSE
- Glucose sweetness rating, without => with the hydroxybenzoic acid derivative [3]: NSE

Molecule: Nc1ccc(C(=O)O)c(O)c1 [compound 29]
- Fructose sweetness rating, without => with the hydroxybenzoic acid derivative [2]: NSE

Molecule: O=C(O)c1cc(F)ccc1O [compound 23]
- Sucrose sweetness rating, without => with the hydroxybenzoic acid derivative [1]: NSE
- Fructose sweetness rating, without => with the hydroxybenzoic acid derivative [2]: NSE
- Glucose sweetness rating, without => with the hydroxybenzoic acid derivative [3]: NSE

Molecule: NC(=O)COc1ccc(C(=O)O)c(O)c1 [compound 41]
- Sucrose sweetness rating, without => with the hydroxybenzoic acid derivative [1]: NSE
- Fructose sweetness rating, without => with the hydroxybenzoic acid derivative [2]: NSE
- Glucose sweetness rating, without => with the hydroxybenzoic acid derivative [3]: NSE

Molecule: O=C(O)c1c(O)cccc1O [compound 8]
- Sucrose sweetness rating, without => with the hydroxybenzoic acid derivative [1]: NSE

Molecule: O=C(O)c1ccc(O)c(C(=O)O)c1 [compound 33]
- Sucrose sweetness rating, without => with the hydroxybenzoic acid derivative [1]: NSE
- Fructose sweetness rating, without => with the hydroxybenzoic acid derivative [2]: NSE
- Glucose sweetness rating, without => with the hydroxybenzoic acid derivative [3]: NSE

Molecule: Cc1ccc(C(=O)O)c(O)c1 [compound 11]
- Sucrose sweetness rating, without => with the hydroxybenzoic acid derivative [1]: NSE
- Fructose sweetness rating, without => with the hydroxybenzoic acid derivative [2]: NSE
- Glucose sweetness rating, without => with the hydroxybenzoic acid derivative [3]: NSE

Molecule: COc1cccc(O)c1C(=O)O [compound 4]
- Sucrose sweetness rating, without => with the hydroxybenzoic acid derivative [1]: NSE
- Fructose sweetness rating, without => with the hydroxybenzoic acid derivative [2]: NSE
- Glucose sweetness rating, without => with the hydroxybenzoic acid derivative [3]: NSE

Molecule: O=C(O)COc1ccc(C(=O)O)c(O)c1 [compound 38]
- Sucrose sweetness rating, without => with the hydroxybenzoic acid derivative [1]: NSE
- Fructose sweetness rating, without => with the hydroxybenzoic acid derivative [2]: NSE
- Glucose sweetness rating, without => with the hydroxybenzoic acid derivative [3]: NSE

Molecule: Cc1cc(C)c(O)c(C(=O)O)c1 [compound 31]
- Sucrose sweetness rating, without => with the hydroxybenzoic acid derivative [1]: NSE
- Fructose sweetness rating, without => with the hydroxybenzoic acid derivative [2]: NSE
- Glucose sweetness rating, without => with the hydroxybenzoic acid derivative [3]: NSE

Molecule: O=C(O)c1ccc(OCCO)cc1O [compound 39]
- Sucrose sweetness rating, without => with the hydroxybenzoic acid derivative [1]: NSE
- Fructose sweetness rating, without => with the hydroxybenzoic acid derivative [2]: NSE
- Glucose sweetness rating, without => with the hydroxybenzoic acid derivative [3]: NSE

Molecule: CCOc1ccc(C(=O)O)c(O)c1 [compound 14]
- Sucrose sweetness rating, without => with the hydroxybenzoic acid derivative [1]: NSE
- Fructose sweetness rating, without => with the hydroxybenzoic acid derivative [2]: NSE
- Glucose sweetness rating, without => with the hydroxybenzoic acid derivative [3]: NSE

- Rate of dissolution in H2O at 25° C. ([4]; in 60 minutes): Very low (<0.2%
Molecule: rebaudioside A [Form 1]

Molecule: O=C(O)c1ccc(O)c(O)c1O [compound 26]
- Sucrose sweetness rating, without => with the hydroxybenzoic acid derivative [1]: NSE
- Fructose sweetness rating, without => with the hydroxybenzoic acid derivative [2]: NSE
- Glucose sweetness rating, without => with the hydroxybenzoic acid derivative [3]: NSE

Molecule: COc1ccc(O)c(C(=O)O)c1 [compound 3]
- Sucrose sweetness rating, without => with the hydroxybenzoic acid derivative [1]: NSE
- Fructose sweetness rating, without => with the hydroxybenzoic acid derivative [2]: NSE
- Glucose sweetness rating, without => with the hydroxybenzoic acid derivative [3]: NSE

Molecule: COc1cccc(C(=O)O)c1O [compound 1]
- Sucrose sweetness rating, without => with the hydroxybenzoic acid derivative [1]: NSE
- Fructose sweetness rating, without => with the hydroxybenzoic acid derivative [2]: NSE
- Glucose sweetness rating, without => with the hydroxybenzoic acid derivative [3]: NSE

Molecule: Cc1ccc(O)c(C(=O)O)c1 [compound 12]
- Sucrose sweetness rating, without => with the hydroxybenzoic acid derivative [1]: NSE
- Fructose sweetness rating, without => with the hydroxybenzoic acid derivative [2]: NSE
- Glucose sweetness rating, without => with the hydroxybenzoic acid derivative [3]: NSE

Molecule: Nc1cccc(C(=O)O)c1O [compound 28]
- Sucrose sweetness rating, without => with the hydroxybenzoic acid derivative [1]: NSE
- Fructose sweetness rating, without => with the hydroxybenzoic acid derivative [2]: NSE
- Glucose sweetness rating, without => with the hydroxybenzoic acid derivative [3]: NSE

Molecule: CCCOc1ccc(C(=O)O)c(O)c1 [compound 34]
- Sucrose sweetness rating, without => with the hydroxybenzoic acid derivative [1]: NSE
- Fructose sweetness rating, without => with the hydroxybenzoic acid derivative [2]: NSE
- Glucose sweetness rating, without => with the hydroxybenzoic acid derivative [3]: NSE

- Rate of dissolution in H2O at 25° C. ([4]; in 5 minutes): Intermediate (<30%
Molecule: rebaudioside A [Form 2]

Molecule: O=C(O)c1ccc(OCCCCO)cc1O [compound 40]
- Sucrose sweetness rating, without => with the hydroxybenzoic acid derivative [1]: NSE
- Fructose sweetness rating, without => with the hydroxybenzoic acid derivative [2]: NSE
- Glucose sweetness rating, without => with the hydroxybenzoic acid derivative [3]: NSE

Molecule: Nc1ccc(O)c(C(=O)O)c1 [compound 30]
- Sucrose sweetness rating, without => with the hydroxybenzoic acid derivative [1]: NSE
- Fructose sweetness rating, without => with the hydroxybenzoic acid derivative [2]: NSE
- Glucose sweetness rating, without => with the hydroxybenzoic acid derivative [3]: NSE

Molecule: Cc1c(O)ccc(C(=O)O)c1O [compound 25]
- Sucrose sweetness rating, without => with the hydroxybenzoic acid derivative [1]: NSE
- Fructose sweetness rating, without => with the hydroxybenzoic acid derivative [2]: NSE
- Glucose sweetness rating, without => with the hydroxybenzoic acid derivative [3]: NSE

Molecule: O=C(O)c1ccc(OCCCc2ccccc2)cc1O [compound 36]
- Sucrose sweetness rating, without => with the hydroxybenzoic acid derivative [1]: NSE
- Fructose sweetness rating, without => with the hydroxybenzoic acid derivative [2]: NSE
- Glucose sweetness rating, without => with the hydroxybenzoic acid derivative [3]: NSE

Molecule: O=C(O)c1c(O)cccc1F [compound 24]
- Sucrose sweetness rating, without => with the hydroxybenzoic acid derivative [1]: NSE
- Fructose sweetness rating, without => with the hydroxybenzoic acid derivative [2]: NSE
- Glucose sweetness rating, without => with the hydroxybenzoic acid derivative [3]: NSE

Molecule: Nc1cc(C(=O)O)c(O)c(S(=O)(=O)O)c1 [compound 27]
- Sucrose sweetness rating, without => with the hydroxybenzoic acid derivative [1]: NSE
- Fructose sweetness rating, without => with the hydroxybenzoic acid derivative [2]: NSE
- Glucose sweetness rating, without => with the hydroxybenzoic acid derivative [3]: NSE

Molecule: O=Cc1ccc(O)c(C(=O)O)c1 [compound 32]
- Sucrose sweetness rating, without => with the hydroxybenzoic acid derivative [1]: NSE
- Fructose sweetness rating, without => with the hydroxybenzoic acid derivative [2]: NSE
- Glucose sweetness rating, without => with the hydroxybenzoic acid derivative [3]: NSE

Molecule: O=C(O)c1cc([N+](=O)[O-])ccc1O [compound 20]
- Sucrose sweetness rating, without => with the hydroxybenzoic acid derivative [1]: NSE
- Fructose sweetness rating, without => with the hydroxybenzoic acid derivative [2]: NSE

Molecule: O=C(O)c1cccc([N+](=O)[O-])c1O [compound 18]
- Sucrose sweetness rating, without => with the hydroxybenzoic acid derivative [1]: NSE
- Fructose sweetness rating, without => with the hydroxybenzoic acid derivative [2]: NSE
- Glucose sweetness rating, without => with the hydroxybenzoic acid derivative [3]: NSE

Molecule: O=C(O)c1ccc(OCc2ccccc2)cc1O [compound 35]
- Sucrose sweetness rating, without => with the hydroxybenzoic acid derivative [1]: NSE
- Fructose sweetness rating, without => with the hydroxybenzoic acid derivative [2]: NSE
- Glucose sweetness rating, without => with the hydroxybenzoic acid derivative [3]: NSE

- Rate of dissolution in H2O at 25° C. ([4]; in 5 minutes): High (>30%
Molecule: rebaudioside A [Form 3]

- Rate of dissolution in H2O at 25° C. ([4]; in 5 minutes): High (>35.0%
Molecule: rebaudioside A [Form 4]

Molecule: COc1ccc(C(=O)O)c(O)c1 [compound 2]
- Sucrose sweetness rating, without => with the hydroxybenzoic acid derivative [1]: NSE
- Fructose sweetness rating, without => with the hydroxybenzoic acid derivative [2]: NSE
- Glucose sweetness rating, without => with the hydroxybenzoic acid derivative [3]: NSE
